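Compound exposure: 48 hours, 5 concentrations, 96-well plates. Here, GI50 denotes the concentration required for 50% inhibition of growth.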 Calls of active or inactive are those of the source. No stated cut-off is given here; in the data, active = GI50 up to about 1.1 µM and inactive = higher.
Legend:
Experiment in all cases: NCI-60 cell line screen, 48 h
ACHN = test system: ACHN
M14 = test system: M14
PC-3 = test system: PC-3
SNB-75 = test system: SNB-75
HCT-15 = test system: HCT-15
RXF 393 = test system: RXF 393
HCC 2998 = test system: HCC 2998
SK-OV-3 = test system: SK-OV-3
EKVX = test system: EKVX
OVCAR-5 = test system: OVCAR-5
BT-549 = test system: BT-549
KM12 = test system: KM12
MOLT-4 = test system: MOLT-4
HCT-116 = test system: HCT-116
NCI-H522 = test system: NCI-H522
NCI/ADR-RES = test system: NCI/ADR-RES
T47D = test system: T47D
SR = test system: SR
K562 = test system: K562
RPMI-8226 = test system: RPMI-8226

Compound	GI50 (ACHN)	GI50 (M14)	GI50 (PC-3)	GI50 (SNB-75)	GI50 (HCT-15)	GI50 (RXF 393)	GI50 (HCC 2998)	GI50 (SK-OV-3)	GI50 (EKVX)	GI50 (OVCAR-5)	GI50 (BT-549)	GI50 (KM12)	GI50 (MOLT-4)	GI50 (HCT-116)	GI50 (NCI-H522)	GI50 (NCI/ADR-RES)	GI50 (T47D)	GI50 (SR)	GI50 (K562)	GI50 (RPMI-8226)
CC1=CC(=O)/C(=C/n2c(=S)[nH]c3cc(C)ccc32)C(=O)O1	> 100 µM (inactive)	> 100 µM (inactive)	> 100 µM (inactive)	> 100 µM (inactive)	> 100 µM	6.21 µM (inactive)	> 100 µM (inactive)	> 100 µM (inactive)	> 100 µM (inactive)	> 100 µM (inactive)	> 100 µM (inactive)	> 100 µM (inactive)	> 100 µM (inactive)	> 100 µM (inactive)	> 100 µM (inactive)	> 100 µM (inactive)	–	–	–	–
CCSCCCCC(c1ccc(O)cc1)C(C)(CC)c1ccc(O)cc1 (stereo not drawn)	18.6 µM (inactive)	31 µM (inactive)	20.3 µM (inactive)	> 100 µM (inactive)	18.4 µM	6.92 µM (inactive)	15.3 µM (inactive)	21.1 µM (inactive)	29.6 µM (inactive)	24.4 µM (inactive)	–	21.6 µM (inactive)	32.1 µM (inactive)	17.9 µM (inactive)	17.7 µM (inactive)	20.3 µM (inactive)	14.4 µM (inactive)	38.7 µM (inactive)	42.1 µM (inactive)	19.5 µM (inactive)
O=C1CC2(C[C@@H]3CCCCCCCCC[C@@H](C3)C2)N1 (stereo partly drawn)	15.5 µM (inactive)	14.8 µM (inactive)	–	6.71 µM (inactive)	17.7 µM	16.2 µM (inactive)	12.2 µM (inactive)	15.1 µM (inactive)	14.4 µM (inactive)	15.4 µM (inactive)	–	17.8 µM (inactive)	12.4 µM (inactive)	19.5 µM (inactive)	16.3 µM (inactive)	–	–	10.8 µM (inactive)	20.8 µM (inactive)	13.7 µM (inactive)
CC(C)CC1[C@@H](OCc2ccccc2)COS(=O)N1Cc1ccccc1 (stereo partly drawn)	35 µM (inactive)	51.4 µM (inactive)	30.1 µM (inactive)	21.5 µM (inactive)	30.8 µM	–	–	> 100 µM (inactive)	38.8 µM (inactive)	> 100 µM (inactive)	–	26.8 µM (inactive)	37 µM (inactive)	28.2 µM (inactive)	–	49.4 µM (inactive)	–	19.9 µM (inactive)	39.4 µM (inactive)	20.8 µM (inactive)
CC1=[N+]([O-])C2(CCCC2)N(O)C1(C)C	> 100 µM (inactive)	> 100 µM (inactive)	> 100 µM (inactive)	–	> 100 µM	> 100 µM (inactive)	> 100 µM (inactive)	> 100 µM (inactive)	> 100 µM (inactive)	> 100 µM (inactive)	–	> 100 µM (inactive)	–	> 100 µM (inactive)	–	> 100 µM (inactive)	> 100 µM (inactive)	–	> 100 µM (inactive)	> 100 µM (inactive)
CCOC(=O)C(=O)/C(=C/NC(=S)Nc1ccc(Cl)c(Cl)c1)C(=O)OCC	> 100 µM (inactive)	75.3 µM (inactive)	47 µM (inactive)	31.2 µM (inactive)	> 100 µM	37.8 µM (inactive)	–	> 100 µM (inactive)	25.6 µM (inactive)	> 100 µM (inactive)	–	86.5 µM (inactive)	29.4 µM (inactive)	75 µM (inactive)	–	50.1 µM (inactive)	–	30.5 µM (inactive)	–	17.9 µM (inactive)
O=C(CSCC(=O)N/N=C\c1ccc(F)cc1F)N/N=C\c1ccc(F)cc1F	> 100 µM (inactive)	> 100 µM (inactive)	–	> 100 µM (inactive)	> 100 µM	> 100 µM (inactive)	> 100 µM (inactive)	> 100 µM (inactive)	> 100 µM (inactive)	–	–	> 100 µM (inactive)	> 100 µM (inactive)	> 100 µM (inactive)	> 100 µM (inactive)	> 100 µM (inactive)	> 100 µM (inactive)	> 100 µM (inactive)	–	> 100 µM (inactive)
O=C1C2=Cc3ccccc3CCN2c2ccc([N+](=O)[O-])cc21	43.2 µM (inactive)	> 100 µM (inactive)	> 100 µM (inactive)	> 100 µM (inactive)	58.3 µM	> 100 µM (inactive)	> 100 µM (inactive)	–	21.4 µM (inactive)	> 100 µM (inactive)	–	> 100 µM (inactive)	45.7 µM (inactive)	> 100 µM (inactive)	24 µM (inactive)	24 µM (inactive)	–	66.8 µM (inactive)	> 100 µM (inactive)	> 100 µM (inactive)
C=CCNC(=S)N/C=C(\C(=O)OCC)C(=O)C(=O)OCC	> 100 µM (inactive)	> 100 µM (inactive)	> 100 µM (inactive)	> 100 µM (inactive)	> 100 µM	> 100 µM (inactive)	> 100 µM (inactive)	> 100 µM (inactive)	> 100 µM (inactive)	> 100 µM (inactive)	–	> 100 µM (inactive)	> 100 µM (inactive)	> 100 µM (inactive)	> 100 µM (inactive)	> 100 µM (inactive)	> 100 µM (inactive)	> 100 µM (inactive)	> 100 µM (inactive)	> 100 µM (inactive)
CCOC(=O)C1=C(O)C(=O)c2cc(C)ccc2C1=O	> 100 µM (inactive)	54.8 µM (inactive)	–	43.5 µM (inactive)	77.8 µM	> 100 µM (inactive)	> 100 µM (inactive)	> 100 µM (inactive)	> 100 µM (inactive)	> 100 µM (inactive)	–	> 100 µM (inactive)	> 100 µM (inactive)	81.7 µM (inactive)	> 100 µM (inactive)	–	–	> 100 µM (inactive)	> 100 µM (inactive)	> 100 µM (inactive)
COc1cc(NCC(C#N)C#N)ccc1/N=N/c1ccc([N+](=O)[O-])cc1	> 100 µM (inactive)	> 100 µM (inactive)	–	30.7 µM (inactive)	> 100 µM	> 100 µM (inactive)	> 100 µM (inactive)	> 100 µM (inactive)	> 100 µM (inactive)	> 100 µM (inactive)	–	> 100 µM (inactive)	58.3 µM (inactive)	> 100 µM (inactive)	46.5 µM (inactive)	–	–	49.5 µM (inactive)	91.2 µM (inactive)	49.1 µM (inactive)
CCOP(=O)(OCC)/C(C#N)=C\c1ccc(OC(C)=O)cc1	> 100 µM (inactive)	> 100 µM (inactive)	–	> 78.5 µM (inactive)	> 100 µM	> 100 µM (inactive)	> 100 µM (inactive)	> 100 µM (inactive)	> 100 µM (inactive)	> 100 µM (inactive)	–	> 100 µM (inactive)	> 100 µM (inactive)	> 100 µM (inactive)	> 80.2 µM (inactive)	–	–	> 100 µM (inactive)	> 100 µM (inactive)	> 100 µM (inactive)
CCN(CC)c1ccc2cc(-c3nnc(-c4ccccc4O)o3)c(=O)oc2c1	10.2 µM (inactive)	11.1 µM (inactive)	10.3 µM (inactive)	–	5.75 µM	–	13.6 µM (inactive)	17.1 µM (inactive)	17 µM (inactive)	16.2 µM (inactive)	5.75 µM (inactive)	12.1 µM (inactive)	3.03 µM (inactive)	5.97 µM (inactive)	5.43 µM (inactive)	10.5 µM (inactive)	–	5.87 µM (inactive)	5.96 µM (inactive)	14.6 µM (inactive)
